{"source": "patent US20240207235A1", "about": "“NANOEMULSION FORMULATION FOR TREATING DISBETES MELLITUS (DM)” (KING FAISAL UNIVERSITY, priority 2022, published 2024)", "origin": "cited, not measured here", "data": [{"smiles": "CCc1ccc(CCOc2ccc(CC3SC(=O)NC3=O)cc2)nc1", "note": "(stereo not shown) [PGZ, Pioglitazone]", "values": [{"measurement": "solubility", "value": "low solubility"}]}]}
